# Molecular target: EmrD (Escherichia coli, UniProt P31442)
# Test: fluorescence anisotropy titration with EmrD
# Format: binding
# Chain of EmrD (P31442 whole entry): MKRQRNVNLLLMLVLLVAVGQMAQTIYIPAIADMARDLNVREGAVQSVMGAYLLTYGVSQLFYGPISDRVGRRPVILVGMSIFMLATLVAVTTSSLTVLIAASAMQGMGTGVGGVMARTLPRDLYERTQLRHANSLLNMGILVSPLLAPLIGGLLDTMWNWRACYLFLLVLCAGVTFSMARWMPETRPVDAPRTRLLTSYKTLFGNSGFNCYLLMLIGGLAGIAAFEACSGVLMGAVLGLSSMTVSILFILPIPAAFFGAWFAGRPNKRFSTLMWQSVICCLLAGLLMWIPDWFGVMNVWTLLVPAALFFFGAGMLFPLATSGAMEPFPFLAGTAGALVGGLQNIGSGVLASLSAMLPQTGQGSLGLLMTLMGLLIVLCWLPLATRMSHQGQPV
smiles,measurement,value
COc1cccc2c1C(=O)c1c(O)c3c(c(O)c1C2=O)C[C@@](O)(C(=O)CO)C[C@@H]3O[C@H]1C[C@H](N)[C@H](O)[C@H](C)O1 [doxorubicin],Kd,~7 µM
